For one compound, gastrointestinal symptoms results are on record in patent US20260048101A1, “GLP-1R ANTAGONISM TO IMPROVE NUTRITION FOLLOWING GASTROINTESTINAL SURGERY” (Amylyx Pharmaceuticals, Inc., priority 2023, published 2026).

The subject of this data set is Patient 2 (total gastrectomy, severe hypoglycemia events). The data set can be described thus: Patient 2 case history: prior pharmacotherapy. To be noted: Patient 2, before trial participation. It counts as in vivo, human. From the text: The patient had been placed on a liquid diet for 6 weeks after surgery and had initially lost 20 lbs. but otherwise fared well in the immediate postoperative period. […] The meals caused pain, gastrointestinal symptoms, and frequent diarrhea (per patient report). The patient also complained of weakness, lethargy and general feeling of despondency. […] They began to experience severe hypoglycemia events, including multiple episodes of loss of consciousness with requirement for emergency medical assistance. […] The patient was referred for trial participation.

With `C[C@H]1O[C@H](O[C@H]2[C@H](O)[C@@H](O)[C@@H](O[C@H]3[C@H](O)[C@@H](O)C(O)O[C@@H]3CO)O[C@@H]2CO)[C@H](O)[C@@H](O)[C@@H]1N[C@H]1C=C(CO)[C@@H](O)[C@H](O)[C@H]1O` (stereo partly shown) [acarbose], the gastrointestinal symptoms result is on record as “worsening of gastrointestinal symptoms”.
